US8216800B2, “Substrates for detecting peptidase activity and methods using the substrates” (Biomerieux, priority 2007, dated 2012)

Tests used:
Test in all cases: Peptidase activity detection on Columbia agar containing substrate
Type in all cases: cell-based
[1] = tested on: Enterococcus faecalis NCTC 775; design: key: − = no fluorescence detected; e = trace of fluorescence; +/− = weak fluorescence; + = medium fluorescence; ++ = strong fluorescence; NG = No Growth; conditions: substrate 100 mg/l, 24 hours at 37° C., UV 360-365 nm
Experimental: (§1) 40 mg of each substrate are dissolved in 4 ml of dimethylformamide (DMF). This solution is completely taken up in 400 ml of Columbia agar autoclaved beforehand and kept molten at 50° C. The final concentration for each substrate is therefore 100 mg/l. Each of the media is distributed into 90 mm Petri dishes in a proportion of 20 ml per dish.
(§2) 18 microorganism strains derived from collections and belonging to various species of bacteria and of yeasts are inoculated onto these media by semi-quantitative isolation of 10 μl of a suspension at 0.5 McFarland diluted to 1/20. The media are incubated for 24 hours at 37° C., and then the colonies formed are examined visually under UV illumination at 360-365 nm.

[2] = tested on: Streptococcus pyogenes NCTC 8306; design: key: − = no fluorescence detected; e = trace of fluorescence; +/− = weak fluorescence; + = medium fluorescence; ++ = strong fluorescence; NG = No Growth; conditions: substrate 100 mg/l, 24 hours at 37° C., UV 360-365 nm
Experimental: as §1, §2

[3] = tested on: Candida glabrata NCPF3943; design: key: − = no fluorescence detected; e = trace of fluorescence; +/− = weak fluorescence; + = medium fluorescence; ++ = strong fluorescence; NG = No Growth; conditions: substrate 100 mg/l, 24 hours at 37° C., UV 360-365 nm
Experimental: as §1, §2

[4] = tested on: Bacillus subtilis NCTC 9372; design: key: − = no fluorescence detected; e = trace of fluorescence; +/− = weak fluorescence; + = medium fluorescence; ++ = strong fluorescence; NG = No Growth; conditions: substrate 100 mg/l, 24 hours at 37° C., UV 360-365 nm
Experimental: as §1, §2

[5] = tested on: Yersinia enterocolitica NCTC 11176; design: key: − = no fluorescence detected; e = trace of fluorescence; +/− = weak fluorescence; + = medium fluorescence; ++ = strong fluorescence; NG = No Growth; conditions: substrate 100 mg/l, 24 hours at 37° C., UV 360-365 nm
Experimental: as §1, §2

[6] = tested on: Enterobacter cloacae NCTC 11936; design: key: − = no fluorescence detected; e = trace of fluorescence; +/− = weak fluorescence; + = medium fluorescence; ++ = strong fluorescence; NG = No Growth; conditions: substrate 100 mg/l, 24 hours at 37° C., UV 360-365 nm
Experimental: as §1, §2

[7] = tested on: Serratia marcescens NCTC 10211; design: key: − = no fluorescence detected; e = trace of fluorescence; +/− = weak fluorescence; + = medium fluorescence; ++ = strong fluorescence; NG = No Growth; conditions: substrate 100 mg/l, 24 hours at 37° C., UV 360-365 nm
Experimental: as §1, §2

[8] = tested on: Enterococcus faecium NCTC 11047; design: key: − = no fluorescence detected; e = trace of fluorescence; +/− = weak fluorescence; + = medium fluorescence; ++ = strong fluorescence; NG = No Growth; conditions: Enterococcus faecium NCTC 11047 (Table 2); substrate 100 mg/l, 24 hours at 37° C., UV 360-365 nm
Experimental: as §1, §2

[9] = tested on: Staphylococcus aureus NCTC 11939; design: key: − = no fluorescence detected; e = trace of fluorescence; +/− = weak fluorescence; + = medium fluorescence; ++ = strong fluorescence; NG = No Growth; conditions: Staphylococcus aureus (MRSA) NCTC 11939; substrate 100 mg/l, 24 hours at 37° C., UV 360-365 nm
Experimental: as §1, §2

[10] = tested on: Escherichia coli NCTC 10418; design: key: − = no fluorescence detected; e = trace of fluorescence; +/− = weak fluorescence; + = medium fluorescence; ++ = strong fluorescence; NG = No Growth; conditions: substrate 100 mg/l, 24 hours at 37° C., UV 360-365 nm
Experimental: as §1, §2

[11] = tested on: Salmonella Typhimurium NCTC 74; design: key: − = no fluorescence detected; e = trace of fluorescence; +/− = weak fluorescence; + = medium fluorescence; ++ = strong fluorescence; NG = No Growth; conditions: substrate 100 mg/l, 24 hours at 37° C., UV 360-365 nm
Experimental: as §1, §2

[12] = tested on: Candida albicans ATCC 90028; design: key: − = no fluorescence detected; e = trace of fluorescence; +/− = weak fluorescence; + = medium fluorescence; ++ = strong fluorescence; NG = No Growth; conditions: substrate 100 mg/l, 24 hours at 37° C., UV 360-365 nm
Experimental: as §1, §2

[13] = tested on: Staphylococcus epidermidis NCTC 11047; design: key: − = no fluorescence detected; e = trace of fluorescence; +/− = weak fluorescence; + = medium fluorescence; ++ = strong fluorescence; NG = No Growth; conditions: substrate 100 mg/l, 24 hours at 37° C., UV 360-365 nm
Experimental: as §1, §2

[14] = tested on: Listeria monocytogenes NCTC 11994; design: key: − = no fluorescence detected; e = trace of fluorescence; +/− = weak fluorescence; + = medium fluorescence; ++ = strong fluorescence; NG = No Growth; conditions: substrate 100 mg/l, 24 hours at 37° C., UV 360-365 nm
Experimental: as §1, §2

[15] = tested on: Providencia rettgeri NCTC 7475; design: key: − = no fluorescence detected; e = trace of fluorescence; +/− = weak fluorescence; + = medium fluorescence; ++ = strong fluorescence; NG = No Growth; conditions: substrate 100 mg/l, 24 hours at 37° C., UV 360-365 nm
Experimental: as §1, §2

[16] = tested on: Staphylococcus aureus NCTC 6571; design: key: − = no fluorescence detected; e = trace of fluorescence; +/− = weak fluorescence; + = medium fluorescence; ++ = strong fluorescence; NG = No Growth; conditions: substrate 100 mg/l, 24 hours at 37° C., UV 360-365 nm
Experimental: as §1, §2

[17] = tested on: Pseudomonas aeruginosa NCTC 10662; design: key to fluorescence intensity: − = no fluorescence detected; e = trace of fluorescence; +/− = weak fluorescence; + = medium fluorescence; ++ = strong fluorescence; NG = No Growth; conditions: Pseudomonas aeruginosa NCTC 10662; substrate 100 mg/l, 24 hours at 37° C., UV 360-365 nm
Experimental: as §1, §2

[18] = tested on: Burkholderia cepacia 1222; design: key to fluorescence intensity: − = no fluorescence detected; e = trace of fluorescence; +/− = weak fluorescence; + = medium fluorescence; ++ = strong fluorescence; NG = No Growth; conditions: Burkholderia cepacia 1222; substrate 100 mg/l, 24 hours at 37° C., UV 360-365 nm
Experimental: as §1, §2

[19] = tested on: Gram-positive bacterial strains and the yeasts; conditions: all the Gram-positive bacterial strains and the yeasts
Experimental: as §1, §2

[20] = tested on: Staphylococcus aureus strains; conditions: the two Staphylococcus aureus strains
Experimental: as §1, §2

[21] = tested on: enterococcal strains; conditions: the two enterococcal strains
Experimental: as §1, §2

[22] = tested on: Gram-negative bacterial strains; conditions: all the Gram-negative bacterial strains with the exception of the Burkholderia cepacia strain
Experimental: as §1, §2

[23] = tested on: Enterococcus faecium NCTC 7171; design: key: − = no fluorescence detected; e = trace of fluorescence; +/− = weak fluorescence; + = medium fluorescence; ++ = strong fluorescence; NG = No Growth; conditions: Enterococcus faecium NCTC 7171 (Table 3); substrate 100 mg/l, 24 hours at 37° C., UV 360-365 nm
Experimental: as §1, §2

[24] = tested on: Citrobacter freundii 46262 (wild); design: key: − = no fluorescence detected; e = trace of fluorescence; +/− = weak fluorescence; + = medium fluorescence; ++ = strong fluorescence; NG = No Growth; conditions: substrate 100 mg/l, 24 hours at 37° C., UV 360-365 nm
Experimental: as §1, §2

[25] = tested on: Morganella morganii 462403 (wild); design: key: − = no fluorescence detected; e = trace of fluorescence; +/− = weak fluorescence; + = medium fluorescence; ++ = strong fluorescence; NG = No Growth; conditions: substrate 100 mg/l, 24 hours at 37° C., UV 360-365 nm
Experimental: as §1, §2

C[C@H](N)C(=O)Nc1ccccc1-c1nc2ccccc2s1 [Substrate 17]
fluorescence intensity [1]: NG
fluorescence intensity [2]: NG
fluorescence intensity [3]: NG
fluorescence intensity [4]: NG
fluorescence intensity [5]: +
fluorescence intensity [6]: +
fluorescence intensity [7]: +
fluorescence intensity [8]: NG
fluorescence intensity [9]: NG
fluorescence intensity [10]: +
fluorescence intensity [11]: NG
fluorescence intensity [12]: NG
fluorescence intensity [13]: NG
fluorescence intensity [14]: NG
fluorescence intensity [15]: +
fluorescence intensity [16]: NG
fluorescence intensity [17]: +
fluorescence intensity [18]: +
toxicity (growth inhibition, text) [19]: inhibited

C[C@H](N)C(=O)Nc1ccccc1-c1nc2ccccc2o1 [Substrate 1]
fluorescence intensity [1]: +/−
fluorescence intensity [2]: −
fluorescence intensity [3]: −
fluorescence intensity [4]: −
fluorescence intensity [5]: ++
fluorescence intensity [6]: ++
fluorescence intensity [7]: ++
fluorescence intensity [8]: +/−
fluorescence intensity [9]: +
fluorescence intensity [10]: ++^1
fluorescence intensity [11]: ++
fluorescence intensity [12]: −
fluorescence intensity [13]: −
fluorescence intensity [14]: +/−
fluorescence intensity [15]: ++
fluorescence intensity [16]: +
fluorescence intensity [17]: ++
fluorescence intensity [18]: −
fluorescence produced [20]: medium green fluorescence
fluorescence produced [21]: weak blue fluorescence
fluorescence produced [22]: strong blue fluorescence

C[C@H](N)C(=O)Nc1ccccc1-c1nc2ccccc2n1CCc1ccccc1 [Substrate 14]
fluorescence intensity [1]: −
fluorescence intensity [2]: −
fluorescence intensity [3]: −
fluorescence intensity [4]: −
fluorescence intensity [5]: −
fluorescence intensity [6]: +/−
fluorescence intensity [7]: +/−
fluorescence intensity [23]: −
fluorescence intensity [9]: −
fluorescence intensity [24]: −
fluorescence intensity [10]: −
fluorescence intensity [11]: −
fluorescence intensity [25]: −
fluorescence intensity [12]: −
fluorescence intensity [13]: −
fluorescence intensity [14]: −
fluorescence intensity [15]: −
fluorescence intensity [16]: −
fluorescence intensity [17]: −
fluorescence intensity [18]: −
